Patent publication US12466821B2 (Novartis AG, priority 2018, dated 2025)
Read-outs that look alike come from different tables or passages of the source.

Columns and labels:
[1] = molecular target: human CMV DNA polymerase UL54 (Human cytomegalovirus (strain AD169) (HHV-5) (Human herpesvirus 5), UniProt P08546); experiment: CMV polymerase biochemical assay (molecular beacon-based)
Procedure, shortened: (§1)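 Readout was beacon fluorescence (ex 480, em 535 nm), used to derive IC50. Each dNTP was at 1.25 uM, with 200 nM primer and 100 nM beacon, after a 30-min RT inhibitor preincubation. Enzyme was 625 pM for HSV UL30 (20 min RT reaction) or 100 pM for CMV UL54 (60 min RT), both sf9-expressed MBP fusions, in pH 7.5 Tris buffer with MgCl2.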

[2] = molecular target: human HSV DNA polymerase UL30 (Human herpesvirus 1 (strain 17) (HHV-1) (Human herpes simplex virus 1), UniProt P04293); experiment: HSV polymerase biochemical assay (molecular beacon-based)
Procedure, shortened: as §1

[3] = tested on: Luciferase-encoding HCMV, AD169 strain; experiment: CMV Luciferase assay (cellular herpesvirus replication); type: cell-based
Procedure, shortened: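 Neonatal human dermal fibroblasts were pretreated 1 h with compound (final 0.0159–50 μM or 0.00318–10 μM, 0.5% DMSO), then infected at MOI 1 with AD169 carrying pp28-promoter luciferase. After 72 h at 37 °C, Renilla-Glo luminescence normalized to no-virus and virus-only controls; EC50 by 4-parameter logistic model.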

[4] = Human betaherpesvirus 5, AD169, read-out: CMV-Luc Cellular EC50

SMILES | IC50 [1] | IC50 [2] | EC50 [3, 4] | EC50 ([3]; read-out: CMV-Luc Cellular EC50)
O=C(NCc1ccc(Cl)cc1)c1ccc2n(c1=O)CCN(CC1(S(=O)(=O)N3CCC3)CC1)C2=O [Example 87, 2-((1-(azetidin-1-ylsulfonyl)cyclopropyl)methyl)-N-(4-chlorobenzyl)-1,6-dioxo-2,3,4,6-tetrahydro-1H-pyrido[1,2-a]pyrazine-7-carboxamide] | 1.2 nM | 35.1 nM | 25.7 nM | –
CC(C)(C)S(=O)(=O)C1(CN2CCn3c(ccc(C(=O)NCc4ccc(C#N)c(F)c4)c3=O)C2=O)CC1 [Example 26] | 0.6 nM | 45.5 nM | 8.9 nM | –
O=C(NCc1ccc(Cl)nc1)c1ccc2n(c1=O)CCN(CC1(S(=O)(=O)C3(CO)CC3)CC1)C2=O [Example 50-2] | 6.4 nM | 72.8 nM | 122 nM | –
CN(C)S(=O)(=O)C1(CN2CCn3c(ccc(C(=O)NCc4ccc(Cl)cc4)c3=O)C2=O)CC1 [Example 90-1, N-(4-chlorobenzyl)-2-((1-(N,N-dimethylsulfamoyl)cyclopropyl)methyl)-1,6-dioxo-2,3,4,6-tetrahydro-1H-pyrido[1,2-a]pyrazine-7-carboxamide] | 0.4 nM | 12.3 nM | 13.4 nM | –
CS(=O)(=O)CCCN1CCn2c(ccc(C(=O)NCc3ccc(Cl)cc3)c2=O)C1=O [Example 52] | 163 nM | 791 nM | 2950 nM | –
CC1(CS(=O)(=O)C2(CN3CCn4c(ccc(C(=O)NCc5ccc(C#N)c(F)c5)c4=O)C3=O)CC2)CC1 [Example 109, N-(4-cyano-3-fluorobenzyl)-2-((1-(((1-methylcyclopropyl)methyl)sulfonyl)cyclopropyl)methyl)-1,6-dioxo-1,3,4,6-tetrahydro-2H-pyrido[1,2-a]pyrazine-7-carboxamide] | 3.2 nM | 121 nM | 112 nM | –
CN(C1(CN2CCn3c(c(F)cc(C(=O)NCc4ccc(Cl)cc4)c3=O)C2=O)CC1)S(C)(=O)=O [Example 166] | 173 nM | 7700 nM | 10000 nM | –
CS(=O)(=O)C1(CN2CCn3c(c(C4CC4)cc(C(=O)NCc4ccc(Cl)cc4)c3=O)C2=O)CC1 [Example 132] | 3.1 nM | 138 nM | 70.7 nM | –
CN1CCC(S(=O)(=O)C2(CN3CCn4c(ccc(C(=O)NCc5ccc(Cl)cc5)c4=O)C3=O)CC2)C1 (stereo not drawn) [Example 80-2, N-(4-chlorobenzyl)-2-((1-((1-methylpyrrolidin-3-yl)sulfonyl)cyclopropyl)methyl)-1,6-dioxo-2,3,4,6-tetrahydro-1H-pyrido[1,2-a]pyrazine-7-carboxamide] | 9.7 nM | 177 nM | 247 nM | –
N#Cc1ccc(CNC(=O)c2ccc3n(c2=O)CCN(CC2(S(=O)(=O)C4(CO)CC4)CC2)C3=O)cc1 [Example 11] | 0.4 nM | 24.3 nM | 26.7 nM | –
CS(=O)(=O)CCCN1CCn2c(c(C#N)cc(C(=O)NCc3ccc(Cl)cc3)c2=O)C1=O [Example 126] | 1200 nM | 1970 nM | 50000 nM | –
CC(CCO)S(=O)(=O)C1(CN2CCn3c(ccc(C(=O)NCc4ccc(C#N)cc4)c3=O)C2=O)CC1 (stereo not drawn) [Example 5, N-(4-cyanobenzyl)-2-((1-((4-hydroxybutan-2-yl)sulfonyl)cyclopropyl)methyl)-1,6-dioxo-2,3,4,6-tetrahydro-1H-pyrido[1,2-a]pyrazine-7-carboxamide] | 2.2 nM | 105 nM | 470 nM | –
Cc1cc(C(=O)NCc2ccc(C#N)c(F)c2)c(=O)n2c1C(=O)N(CC1(S(C)(=O)=O)CC1)CC2 [Example 86-2] | 4.6 nM | 276 nM | 226 nM | –
N#Cc1ccc(CNC(=O)c2ccc3n(c2=O)CCN(CC2(S(=O)(=O)C4(C(F)F)CC4)CC2)C3=O)cc1Cl [Example 99-3] | 0.8 nM | 201 nM | 172 nM | –
CS(=O)(=O)C1(CN2CCn3c(c(F)cc(C(=O)NCc4ccc(C#N)cc4)c3=O)C2=O)CC1 [Example 164] | 13 nM | 305 nM | 249 nM | –
Cc1cc(C(=O)NCc2ccc(Cl)cc2)c(=O)n2c1C(=O)N(CCS(C)(=O)=O)CC2 [Example 153] | 118 nM | 388 nM | 626 nM | –
CNC1(CN2CCn3c(ccc(C(=O)NCc4ccc(Cl)cc4)c3=O)C2=O)CC1 [Example 204, N-(4-chlorobenzyl)-2-((1-(methylamino)cyclopropyl)methyl)-1,6-dioxo-1,3,4,6-tetrahydro-2H-pyrido[1,2-a] pyrazine-7-carboxamide] | 156 nM | 5470 nM | 4040 nM | –
CC1(S(=O)(=O)C2(CN3CCn4c(ccc(C(=O)NCc5ccc(C#N)cc5)c4=O)C3=O)CC2)CC1 [Example 94-1] | 0.6 nM | 33.2 nM | 13.3 nM | –

SMILES | IC50 [1] | IC50 [2] | EC50 [3, 4] | EC50 ([3]; read-out: CMV-Luc Cellular EC50)
N#Cc1ccc(CNC(=O)c2ccc3n(c2=O)CCN(CC2(S(=O)(=O)C4COC4)CC2)C3=O)cc1F [Example 29] | 1.8 nM | 63.5 nM | 86.4 nM | –
CC(C)S(=O)(=O)C1(CN2CCn3c(ccc(C(=O)NCc4ccc(C#N)cc4)c3=O)C2=O)CC1 [Example 32] | 1.6 nM | 49.5 nM | 52 nM | –
CC(C)(CN)S(=O)(=O)C1(CN2CCn3c(ccc(C(=O)NCc4ccc(C#N)cc4)c3=O)C2=O)CC1 [Example 184] | 3.9 nM | 60.3 nM | 31.6 nM | –
O=C(NCc1ccc(Cl)cc1)c1ccc2n(c1=O)CCN(CCC1CCCS1(=O)=O)C2=O (stereo not drawn) [Example 50-1, N-(4-chlorobenzyl)-2-(2-(1,1-dioxidotetrahydrothiophen-2-yl)ethyl)-1,6-dioxo-2,3,4,6-tetrahydro-1H-pyrido[1,2-a]pyrazine-7-carboxamide] | 35.6 nM | 188 nM | 306 nM | –
CS(=O)(=O)C1(CN2CCn3c(ccc(C(=O)NCc4ccc(C#N)cc4F)c3=O)C2=O)CC1 [Example 38] | 12 nM | 630 nM | 868 nM | –
CC1(CN2CCn3c(ccc(C(=O)NCc4ccc(Cl)cc4)c3=O)C2=O)COC1 [Example 57-1] | 2660 nM | 31300 nM | 29200 nM | –
N#Cc1ccc(CNC(=O)c2ccc3n(c2=O)CCN(CC2(S(=O)(=O)CC4CC4)CC2)C3=O)cc1 [Example 107-2] | 2.5 nM | 150 nM | 200 nM | –
C[S@@+]([O-])C1(CN2CCn3c(ccc(C(=O)NCc4ccc(C#N)cc4)c3=O)C2=O)CC1 [Example 68-2] | 62.2 nM | 2730 nM | 2860 nM | –
O=C(NCc1ccc(Cl)cc1)c1ccc2n(c1=O)CCN(CC1(S(=O)(=O)C3(CO)CC3)CC1)C2=O [Example 10, N-(4-chlorobenzyl)-2-((1-((1-(hydroxymethyl)cyclopropyl)sulfonyl)cyclopropyl)methyl)-1,6-dioxo-2,3,4,6-tetrahydro-1H-pyrido[1,2-a]pyrazine-7-carboxamide] | 0.3 nM | 18.8 nM | 4.9 nM | –
CS(=O)(=O)C1(CN2CCn3c(ccc(C(=O)NCc4ncc(Cl)cn4)c3=O)C2=O)CC1 [Example 40] | 480 nM | 28300 nM | 10000 nM | –
C[C@H](CCO)S(=O)(=O)C1(CN2CCn3c(ccc(C(=O)NCc4ccc(C#N)cc4)c3=O)C2=O)CC1 (single isomer, unassigned) [Example 9, N-(4-cyanobenzyl)-2-((1-((4-hydroxybutan-2-yl)sulfonyl)cyclopropyl)methyl)-1,6-dioxo-2,3,4,6-tetrahydro-1H-pyrido[1,2-a]pyrazine-7-carboxamide] | 1.7 nM | 73.8 nM | 167 nM | –
O=C(NCc1ccc(F)cc1)c1ccc2n(c1=O)CCN(CC1(S(=O)(=O)C3CC3)CC1)C2=O [Example 3-2] | 3 nM | 78.7 nM | 84.8 nM | –
N#Cc1ccc(CNC(=O)c2ccc3n(c2=O)CCN(CC2(S(=O)(=O)C4CNC4)CC2)C3=O)cc1 [Example 18] | 4.2 nM | 161 nM | 3000 nM | –
O=C(NCc1ccc(Cl)cc1)c1ccc2n(c1=O)CCN(CCN1CCCS1(=O)=O)C2=O [Example 64, N-(4-chlorobenzyl)-2-(2-(1,1-dioxidoisothiazolidin-2-yl)ethyl)-1,6-dioxo-2,3,4,6-tetrahydro-1H-pyrido[1,2-a]pyrazine-7-carboxamide] | 33.6 nM | 181 nM | 96.1 nM | –
CS(=O)(=O)C1(CN2CCn3c(ccc(C(=O)NCc4ccc(Cl)c(F)c4)c3=O)C2=O)CC1 [Example 41] | 2.8 nM | 123 nM | 42.9 nM | –
CN(C)C(=O)OC1(CN2CCn3c(ccc(C(=O)NCc4ccc(Cl)cc4)c3=O)C2=O)CC1 [Example 172, 1-((7-((4-chlorobenzyl)carbamoyl)-1,6-dioxo-1,3,4,6-tetrahydro-2H-pyrido[1,2-a]pyrazin-2-yl)methyl)cyclopropyl dimethyl carbamate] | 2400 nM | 71000 nM | 10000 nM | –
CS(=O)(=O)C1(CN2CCn3c(ccc(C(=O)NCc4ccc(Cl)cc4)c3=O)C2=O)CCC1 [Example 49] | 41.8 nM | 2520 nM | – | 2800 nM
